From article PMC8546149, “Antibiotic-chemoattractants enhance neutrophil clearance of Staphylococcus aureus” (Nature Communications, 2021)
Non-standard residues stand in square brackets, D forms with d. Residues, ends and D or L forms follow the SMILES beside them. *: point of attachment. Cha = N[C@@H](CC1CCCCC1)C(=O)O; For = O=C*

Tests used:
human FPR1 [1] = biological target: T1, human FPR1 (Homo sapiens, UniProt P21462); assay: Calcium mobilization, CHO cells expressing FPR1; format: cell-based; settings: mean ± SEM; for Emax: normalized to ATP 100 µM, read-out: [Ca2+]i mobilization FPR1 Emax; for EC50: read-out: [Ca2+]i mobilization FPR1 pEC50 (converted)
T1 construct: expressed in transfected cells
T1 sequence (P21462 1-350): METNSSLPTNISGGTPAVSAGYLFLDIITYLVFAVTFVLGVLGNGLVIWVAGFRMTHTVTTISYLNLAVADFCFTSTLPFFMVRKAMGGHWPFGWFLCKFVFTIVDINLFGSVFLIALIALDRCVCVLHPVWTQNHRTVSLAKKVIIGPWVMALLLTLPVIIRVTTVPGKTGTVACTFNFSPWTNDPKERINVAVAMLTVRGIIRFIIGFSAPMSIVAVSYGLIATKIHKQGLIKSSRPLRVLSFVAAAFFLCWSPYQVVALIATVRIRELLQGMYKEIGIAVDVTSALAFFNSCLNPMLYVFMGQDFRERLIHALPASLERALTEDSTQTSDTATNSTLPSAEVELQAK
Method: (§1) FlpIn Chinese hamster ovary (CHO) cells stably expressing either the human FPR1 or FPR2. Both of the cell lines were cultured in Dulbecco’s modified eagle medium (DMEM), which contained 10% foetal bovine serum (FBS, JRH Biosciences) and 500 µg/mL of the antibiotic hygromycin-B (Invitrogen Inc). Cells were grown at 37 °C in a humidified incubator containing 5% CO2 as described previously. Cells were seeded into 96-well tissue culture plates (4 × 10^4 cells/well) and after 6–8 h, cells were washed with PBS twice (50 µL/well in each washing step) and then starved by incubating in 90 µL/well of serum-free DMEM overnight at 37 °C in 5% CO2 before assaying for ERK1/2 phosphorylation (pERK1/2) and intracellular Ca^2+ mobilization.
(§2) For the calcium mobilization assay, the cells were plated and starved in the same manner as the pERK1/2 assay, before washing the cells once in HEPES buffered saline (HBS) solution [150 mM NaCl, 1.3 mM CaCl2, 5 mM KCl, 1 mM MgSO4.7H2O, 1.5 mM NaHCO3, 10 mM HEPES, and 10 mM D-glucose; pH 7.4]. Then the cells were incubated at 37 °C under 5% CO2 condition with HBS containing 0.5% (w/v) bovine serum albumin (BSA), 4 mM probenecid and 1 µM Fluo-8-AM (Abcam) for 1 h. FlexStation three plate reader (Molecular Devices) were used to determine Ca^2+ mobilization. The peak change in fluorescence signal was normalized to the vehicle (HBS solution) and the cellular response mediated by the positive control, adenosine triphosphate (ATP, 100 µM), and fitted with nonlinear regression curve in GraphPad Prism 9.0.
(§3) Non-linear regression was performed using GraphPrism 9.0. […] Significance was determined using Student’s unpaired t test, with two-tailed p values of <0.05 considered statistically significant.

human FPR1 [2] = biological target: T1, human FPR1; assay: ERK1/2 phosphorylation, CHO cells expressing FPR1; format: cell-based; settings: 5 min, mean ± SEM; for Emax: normalized to 10% FBS; for EC50: read-out: ERK1/2 phosphorylation FPR1 pEC50 (converted)
Method: as §1
(§4) A time course was used to assess peak pERK1/2 phosphorylation for all the compounds. The positive control of 10% FBS, and serum-free DMEM as vehicle control. […] All the compounds were tested with time points taken at 0, 5, 7, 10, 20, 30.
(§5) For both the time course and concentration-response curves, the stimulation was terminated by the rapid removal of serum-free DMEM with agonists and adding 100 μL/well of SureFire lysis buffer. The detection step was performed according to the manufacturer’s instructions (AlphaScreen detection kit, PerkinElmer Life and Analytical Science)[49]. Data were normalized to the vehicle (serum-free DMEM) and the response elicited by 10% FBS, with nonlinear regression performed using GraphPad Prism 9.0.
as §3

human FPR2 [3] = biological target: T2, human FPR2 (Homo sapiens, UniProt P25090); assay: Calcium mobilization, CHO cells expressing FPR2; format: cell-based; settings: mean ± SEM; for Emax: normalized to ATP 100 µM, read-out: [Ca2+]i mobilization FPR2 Emax; for EC50: read-out: [Ca2+]i mobilization FPR2 pEC50 (converted)
T2 construct: expressed in transfected cells
T2 sequence (P25090 1-351): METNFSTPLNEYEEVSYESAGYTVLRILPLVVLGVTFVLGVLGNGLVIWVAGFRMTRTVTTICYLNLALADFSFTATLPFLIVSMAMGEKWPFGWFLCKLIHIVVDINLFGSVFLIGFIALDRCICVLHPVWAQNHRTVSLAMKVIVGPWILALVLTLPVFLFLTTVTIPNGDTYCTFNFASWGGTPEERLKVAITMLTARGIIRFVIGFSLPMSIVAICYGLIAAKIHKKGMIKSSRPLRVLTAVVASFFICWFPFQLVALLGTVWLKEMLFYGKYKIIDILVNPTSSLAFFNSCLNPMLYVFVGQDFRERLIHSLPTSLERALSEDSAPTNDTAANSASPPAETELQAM
Method: as §1, §2, §3

human FPR2 [4] = biological target: T2, human FPR2; assay: ERK1/2 phosphorylation, CHO cells expressing FPR2; format: cell-based; settings: 5 min, mean ± SEM; for Emax: normalized to 10% FBS; for EC50: read-out: ERK1/2 phosphorylation FPR2 pEC50 (converted)
Method: as §1, §4, §5, §3

[5] = tested on: FPR2 of human neutrophils; assay: FPR competition binding assay with RhB-PB10; settings: 8 µM peptide, 5 min, after RhB-PB10 15 µM 1 h, Bis-Tris pH 6
Method: A competition binding assay was performed based modification of the previous method. To determine the interaction of the formylated peptides with FPR2 of human neutrophils the fluorescently labelled FPR2 antagonist RhB-PB10 was used. RhB-PB10 was synthesized by solid-phase peptide synthesis on Wang resin. After initial acylation with Fmoc-L-Arg(Pbf)-OH, peptide elongation was performed using a solution of 20% piperidine for Fmoc removal and DIC/ Oxyma for Fmoc-amino acid or Rhodamine B coupling. After completion of the sequence, the peptide was cleaved from the resin and protecting groups were removed via TFA cleavage. Following concentration, the peptide was precipitated using diethyl ether, collected by centrifugation on a spark-resistant centrifuge and purified using RP-HPLC.
RhB-PB10 (15 μM) was preincubated with human neutrophils (5 × 10^6 neutrophils/mL) in Bis-Tris buffer pH 6 for 1 h. […] Any RhB-PB10 that was competed off by the peptides was then removed by washing in Bis-Tris buffer. Rhodamine B fluorescence levels of each sample were determined using microplate reader (Clariostar plate reader, BMG) with ex 550 nm, em 585 nm.

[6] = tested on: pHrodo Red S. aureus BioParticles phagocytosed by human neutrophils; assay: Infection-on-a-chip phagocytosis (pHrodo fluorescence); format: cell-based; settings: at 2 h
Method: For neutrophils used in microfluidic devices, de-identified fresh blood samples (10 mL) were purchased from Research Blood Components where blood samples were obtained from healthy volunteers aged ≥18 years who were not receiving immunosuppressant agents. Additionally, venous blood samples from healthy volunteers were collected by phlebotomy, after receipt of written informed consent, and under approval by the MGH Institutional Review Board (protocol 2008-P-002123). Neutrophils were isolated from whole blood using EasySep direct human neutrophil isolation kit (StemCell Technologies) as per the manufacturer’s instructions.
Use of this microfluidic device for monitoring migration of neutrophils and control of the S. aureus growth in cell culture medium has been outlined in detail previously. Briefly, microfluidic devices were primed with S. aureus (SH1000-GFP, 1 × 10^6/mL) in culture media (Iscove’s Modified Dulbecco’s Medium + 10% Fetal Bovine Serum) by loading the outer chamber and applying vacuum to draw bacteria into the inner chambers. The outer chamber was then washed by pushing 200 µL of media through the device using a pipette, and loaded with neutrophils (5.5 × 10^6/mL, stained with Hoechst 33342 dye, 10 min at 32 μM). Additionally, neutrophil phagocytosis was monitored by using pHrodo Red S. aureus BioParticles® (Life Technologies) in replace of live S. aureus cells. BioParticles were used at a final concentration of 1 × 10^7/mL, which gave 50–100 BioParticles within the microchamber. The concentration of cells were determined by hemocytometer.
Kinetics of neutrophil migration, S. aureus growth and phagocytosis was determined using imaging with an automated Nikon Eclipse TiE inverted wide-field microscope with stage control and perfect focus system run through the Nikon NIS element v4. The biochamber was maintained temperature at 37 °C and CO2 at 5% for the 8 h of the experiment, where images were captured every 5 min for each field of view (FOV), with at least 4 FOV captured per experimental condition. For each experimental condition at least 12 chambers were tracked for neutrophil migration using the FIJI[64] plugin Trackmate[65]. The percentage of neutrophils recruited into the chamber was determined relative to the total number of neutrophils in each FOV divided by the number of chambers visible. Data were averaged and the results from at least 3 donors plotted. The pHrodo or S. aureus GFP fluorescence within the microchamber was calculated by thresholding the image and measuring the area in FIJI[36]. Data were plotted using GraphPad Prism 8 software (GraphPad Software, San Diego, CA, USA).

[7] = biological target: T3, formyl peptide receptor 1 (FPR1) (human, UniProt P21462 1-350)
T3 sequence (looked up): T1 sequence (P21462 1-350)

Molecule | Emax (human FPR1 [1]) | Emax (human FPR1 [2]) | Emax (human FPR2 [3]) | Emax (human FPR2 [4]) | area of pHrodo fluorescence per neutrophil recruited into the microchamber ([6]; donor 2) | area of pHrodo fluorescence per neutrophil recruited into the microchamber ([6]; donor column 1) | area of pHrodo fluorescence per neutrophil recruited into the microchamber ([6]; donor column 3) | area of pHrodo fluorescence per neutrophil recruited into the microchamber ([6]; donor column 4) | further results
CN[C@H](CC(C)C)C(=O)N[C@H]1C(=O)N[C@@H](CC(N)=O)C(=O)N[C@H]2C(=O)N[C@H]3C(=O)N[C@H](C(=O)N[C@H](C(=O)NCCCn4cc(C[C@H](NC(=O)CNC(=O)[C@H](Cc5ccccc5)NC(=O)[C@H](CC(C)C)NC(=O)[C@H](CCSC)NC=O)C(N)=O)nn4)c4cc(O)cc(O)c4-c4cc3ccc4O)[C@H](O)c3ccc(c(Cl)c3)Oc3cc2cc(c3O[C@@H]2O[C@H](CO)[C@@H](O)[C@H](O)[C@H]2O[C@H]2C[C@](C)(N)[C@H](O)[C@H](C)O2)Oc2ccc(cc2Cl)[C@H]1O [C1, Van-C(fMLFG-Tz)] | 34 ± 8% | 77 ± 8% | 45 ± 10% | 99 ± 9% | – | – | – | – | –
fMIVIL [FPR2 specific agonist (Auspep)] | – | – | – | – | – | – | – | – | RhB-PB10 binding to neutrophils relative to control (=1) ([5]; replicate 1): 0.81; RhB-PB10 binding to neutrophils relative to control (=1) ([5]; replicate 2): 0.79; RhB-PB10 binding to neutrophils relative to control (=1) ([5]; replicate 3): 0.62; RhB-PB10 binding to neutrophils relative to control (=1) ([5]; replicate 4): 0.75; RhB-PB10 binding to neutrophils relative to control (=1) ([5]; replicate 5): 0.7
CN[C@H](CC(C)C)C(=O)N[C@H]1C(=O)N[C@@H](CC(N)=O)C(=O)N[C@H]2C(=O)N[C@H]3C(=O)N[C@H](C(=O)N[C@H](C(=O)NCCCn4cc(C[C@H](NC(=O)CNC(=O)[C@H](Cc5ccccc5)NC(=O)[C@H](CC5CCCCC5)NC(=O)[C@H](CCSC)NC=O)C(N)=O)nn4)c4cc(O)cc(O)c4-c4cc3ccc4O)[C@H](O)c3ccc(c(Cl)c3)Oc3cc2cc(c3O[C@@H]2O[C@H](CO)[C@@H](O)[C@H](O)[C@H]2O[C@H]2C[C@](C)(N)[C@H](O)[C@H](C)O2)Oc2ccc(cc2Cl)[C@H]1O [C11, Van-C(fM-Cha-FG-Tz)] | 24 ± 3% | 83 ± 3% | 27 ± 3% | 84 ± 4% | – | – | – | – | –
fML-Tyr-G-NH2 [FP12] | – | – | – | – | 4.1 | 4.7 | 1.5 | 2.8 | –
CSCC[C@H](NC=O)C(=O)N[C@@H](CC(C)C)C(=O)N[C@@H](Cc1ccccc1)C(=O)O [fMLF, N-formyl-Met-Leu-Phe, reference compound] | – | – | 18 ± 4% | 99 ± 27% | – | – | – | – | –
fMChaFG = van (fMChaFG conjugated to the C-terminus of vancomycin) (peptide) | – | – | – | – | – | – | – | – | ERK1/2 phosphorylation at 5 min in CHO cells overexpressing human FPR1, potency of the conjugate against the free peptide (lower potency) [7]: 10 fold; calcium mobilization in CHO cells overexpressing human FPR1, potency of the conjugate against the free peptide (lower potency) [7]: > 90 fold
fMLF-Leu-NH2 [FP19] | – | – | – | – | 7.8 | 6.5 | 1.5 | 2.3 | –
Van-C(fMLF-Leu-Tz) [C18] | – | – | – | – | 4.4 | 7.9 | 2.1 | 1.8 | –
Van-C(fML-Tyr-G-Tz) [C19] | – | – | – | – | 3.5 | 9.2 | 7.8 | 2.6 | –
CSCC[C@H](NC=O)C(=O)N[C@@H](CC1CCCCC1)C(=O)N[C@@H](Cc1ccccc1)C(=O)NCC(N)=O [FP11, fM-Cha-FG-NH2] (For-M[Cha]FG-NH2) | 27 ± 4% | 90 ± 8% | 43 ± 13% | 81 ± 9% | – | – | – | – | EC50 (human FPR1 [1]): 9.55 nM; EC50 (human FPR1 [2]): 2.19 nM; EC50 (human FPR2 [3]): 1320 nM; EC50 (human FPR2 [4]): 1860 nM
CSCC[C@H](NC=O)C(=O)N[C@@H](CC(C)C)C(=O)N[C@@H](Cc1ccccc1)C(=O)NCC(N)=O [FP1, fMLFG-NH2] (For-MLFG-NH2) | 27 ± 4% | 86 ± 8% | 34 ± 7% | 82 ± 7% | – | – | – | – | EC50 (human FPR1 [1]): 6.76 nM; EC50 (human FPR1 [2]): 2.51 nM; EC50 (human FPR2 [3]): 1350 nM; EC50 (human FPR2 [4]): 2880 nM
